Source: patent US10787651B2, “Bradyrhizobium monooxygenase and use thereof for preparation of chiral sulfoxide” (JIANGSU AOSAIKANG PHARMACEUTICAL CO., LTD., priority 2018, dated 2020)
Substitutions are numbered along the chain they refer to. Each block holds one molecule with its values, some of them ahead of it.

Assays:
[1] = system: purified BoTEMO enzyme; assay: Specific activity and ee of purified BoTEMO enzyme against a series of thioethers; type: biochemical, Bradyrhizobium oligotrophicum ECU1212; conditions: pH 9.0, 25° C.
Procedure: To 0.5 ml of potassium phosphate buffer (100 mmol/L, pH 9.0) was added purified BoTEMO enzyme (purified BoTEMO enzyme prepared in accordance with the method of Example 5). A thioether substrate dissolved in DMSO was added so that the final concentration of the thioether was 0.2-2 mmol/L and the final concentration of DMSO was 2% (v/v), and NADPH was added to a final concentration 0.2-2 mmol/L. At 25° C., the reaction was stirred at 1000 rpm under shaking. After completion of reaction, 0.6 ml of ethyl acetate was added for extraction. The extract was dried over anhydrous sodium sulfate. The organic clear liquid was taken up, and evaporated overnight to remove the solvent. Then, the residue was dissolved with 0.5 ml of isopropanol and analyzed for measuring the ee value of product.
The particular analysis conditions of conversion rate and ee value of product are as follows:
(§1) The analysis is carried out with a high performance liquid chromatograph (HPLC) under the conditions of: a chiral OD-H column ([…], 5 μm particle size, Daicel), a mobile phase of n-hexane:isopropanol=93:7, a flow rate of 1 ml/min, and UV detection at 254 nm; or an AS-H column (250 mm×4.6 mm, 5 μm particle size, Daicel), a mobile phase of n-hexane:isopropanol=55:45, a flow rate of 0.5 mL/min, and UV detection at 254 nm.
The activity of BoTEMO for catalyzing the asymmetrical oxidation of a series of thioether substrates to produce optically active sulfoxides was further determined by the method in accordance with Example.

[2] = system: Recombinant BoTEMO; assay: Asymmetric oxidation of thioethers by recombinant BoTEMO crude enzyme with glucose dehydrogenase recycling; type: biochemical, Bradyrhizobium oligotrophicum ECU1212; conditions: 25° C.
Procedure: as §1
To 0.5 ml potassium phosphate buffer (100 mmol/L, pH 9.0) was added 100 μL of crude enzyme solution of BoTEMO (the crude enzyme solution in accordance with the method of Example 5) and a crude enzyme solution of glucose dehydrogenase, and thioanisole, methanol, NADP^+ and glucose were added to the final concentration of 2 mmol/L, 10% (v/v), 0.2 mmol/L and 3.6 g/L, respectively. At 25° C. and 1000 rpm, the mixture was shaken for 1 h. After completion of reaction, 0.6 ml of ethyl acetate was added for extraction. The extract was dried over anhydrous sodium sulfate, and evaporated to remove the solvent. Then, the residue was dissolved in 0.5 ml of isopropanol. The mixture was analyzed in accordance with the method of Example 7 for measure the conversion of reaction and the ee value of product. The conversion of reaction was above 99%, and the ee value of product was above 99% (S).
To 0.5 ml of potassium phosphate buffer (100 mmol/L, pH 9.0) was added 100 μL crude enzyme solution of BoTEMO (the crude enzyme solution prepared in accordance with the method of Example 5) and a crude enzyme solution of glucose dehydrogenase, and omeprazole thioether, methanol, NADP^+ and glucose were added to the final concentrations of 0.2 mmol/L, 10% (v/v), 0.2 mmol/L and 3.6 g/L, respectively. At 25° C. and 1000 rpm, the mixture was shaken for 1 h. After completion of reaction, 0.6 ml of ethyl acetate was added for extraction. […] Then, the residue was dissolved in 0.5 ml isopropanol, and the solution was analyzed in accordance with the method of Example 7 for measuring the conversion of reaction and the ee value of product. […]
To 10 ml of potassium phosphate buffer (100 mmol/L, pH 9.0) was added 0.1 g of lyophilized crude enzyme powders of BoTEMO (crude enzyme powders prepared in accordance with the method of Example 5) and 0.02 g of lyophilized crude enzyme powder of glucose dehydrogenase (15 U/mg), and 1-3 g/L of omeprazole thioether/lansoprazole thioether/pantoprazole thioether/rabeprazle thioether/ilaprazole thioether, 10% (v/v) of methanol, 0.2 mmol/L of NADP^+ and 10 g/L of glucose were added. […] Then, the residue was dissolved in 0.5 ml of isopropanol, and the solution was analyzed in accordance with the method of Example 7 for measuring the conversion of reaction and the ee value of product. […]

[3] = system: Lysinibacillus; conditions: substrate loading 0.1 g/L, after 48 fermentation cultivation; cited from earlier work
[4] = system: Bradyrhizobium oligotrophicum ECU1212 resting cells; assay: Asymmetric oxidation of thioethers by whole resting cells; type: cell-based; conditions: 37 g/L substrate, 1 g lyophilized cells in 100 ml, 28° C., 24 h
Procedure: Optionally, resting cells harvested from the culture of Bradyrhizobium oligotrophicum ECU1212 are used to asymmetrically catalyze the oxidation of lansoprazole thioether to prepared (R)-lansoprazole under the conditions that the thioether substrate concentration is 0.1 g/L, the catalyst loading is 10 g/L, and the reaction is carried out at 30° C. under stirring at 180 rpm. The conversion rate of lansoprazole thioether can be up to 80%, and the optical purity can be up to 99% ee(R). it can be seen that the Bradyrhizobium oligotrophicum ECU1212 comprises functional enzyme(s) which serve to asymmetrically catalyze the oxidation and have a high catalytic conversion rate. Thus, it can solve the problem that the conventional bio-catalysts have low conversion rate in the asymmetric catalytic oxidation process. […]
To 100 ml Tris-HCl buffer (100 mmol/L, pH 9.0) was added 1 g of Bradyrhizobium oligotrophicum ECU1212 lyophilized cells (lyophilized cells prepared in accordance with Example 2), and thioanisole and methanol were added to a final concentration of 37 g/L, 10% (v/v). […] Then, the residue was dissolved in 0.5 ml isopropanol, and the solution was analyzed in accordance with the method of Example 7 for the conversion of reaction and the ee value of product. […]

[5] = Activity of recombinant BoTEMO by change of absorbance at 340 nm (NADPH); type: biochemical
Procedure: The activity of BoTEMO and glucose dehydrogenase was determined by measuring the change of absorbance at 340 nm with a spectrophotometer.
(§2) The activity of BoTEMO was determined as follows. To 1 ml of the reaction system (100 mmol/L Tris-HCl buffer, pH 9.0) was added 1 mmol/L thioanisole and 0.2 mmol/L NADPH. The mixture was kept at 30° C. for 2 min, and then an appropriate amount of crude enzyme solution prepared in accordance with Example 5 was added. The mixture was rapidly mixed to uniform, and measured for the change of absorbance at 340 nm. The specific activity of the crude enzyme solution was determined as 101 mU/ml.
(§3) The enzyme activity was calculated in accordance with the equation of: Enzyme Activity (U)=EW×V×10^3/(6220×1).
(§4) In the equation, EW represents the change of absorbance at 340 nm in 1 min; V represents the volume of the reaction mixture (in ml); 6220 represents the molar extinction coefficient of NADPH (in L/(mol·cm)); and 1 represents the optical path distance (in cm). Each unit of BoTEMO is defined as the enzyme amount required to catalyze the oxidation of 1 μmol NADPH per minute under the foregoing conditions. Each unit of glucose dehydrogenase is defined as the enzyme amount required to catalyze the reduction of 1 μmol NADP^+ per minute under the foregoing conditions.

[6] = Enzyme activity of BoTEMO-M1 and BoTEMO-M2 powders (method of Example 6); type: biochemical; conditions: lyophilized crude enzyme powders; for enzyme activity relative to BoTEMO: times that of BoTEMO
Procedure: as §2, §3, §4
Recombinant transformants were prepared from the foregoing two mutant genes of BoTEMO-M1 and BoTEMO-M2 in accordance with the method of Example 4. Resting cells and lyophilized crude enzyme powders were prepared in accordance with the method of Example 5. And further, the enzyme activities of BoTEMO-M1 and BoTEMO-M2 powders were measured in accordance with the method of measuring the enzyme activity of Example 6. The enzyme activities of BoTEMO-M1 and BoTEMO-M2 are 7.6 times that of BoTEMO (BoTEMO-M1) and 1.6 times (BoTEMO-M2), respectively. The activity against the lansoprazole thioether reaches 20 U/g (BoTEMO-M1) and 4.2 U/g (BoTEMO-M2).

Molecule: CSc1ccccc1 [compound 1]
Specific Activity [1]: +++ (“+++”: >100 U/g)

Molecule: COc1ccc2[nH]c(SCc3ncc(C)c(OC)c3C)nc2c1 [compound 2]
Specific Activity [1]: ++ (“++”: 10 ~ 100 U/g)

Molecule: COc1ccnc(CSc2nc3cc(-n4cccc4)ccc3[nH]2)c1C [compound 3]
Specific Activity [1]: ++ (“++”: 10 ~ 100 U/g)

Molecule: CSc1ccc(C)cc1 [compound 4]
Specific Activity [1]: + (“+”: <10 U/g)

Molecule: COc1ccc2[nH]c(SC)nc2c1 [compound 5]
Specific Activity [1]: + (“+”: <10 U/g)

Molecule: COCCCOc1ccnc(CSc2nc3ccccc3[nH]2)c1C [compound 6]
Specific Activity [1]: + (“+”: <10 U/g)

Molecule: COc1ccnc(CSc2nc3cc(OC(F)F)ccc3[nH]2)c1OC [compound 7]
Specific Activity [1]: + (“+”: <10 U/g)

Molecule: Cc1c(OCC(F)(F)F)ccnc1CSc1nc2ccccc2[nH]1 [compound 8]
Specific Activity [1]: + (“+”: <10 U/g)

Molecule: COc1ccc2[nH]c(SCc3ncc(C)c(OC)c3C)nc2c1 [omeprazole thioether]
conversion of reaction ([2]; 1 g crude enzyme powders in 100 ml, 1 g/L substrate, 3 h): above 99% | conversion of reaction ([2]; crude enzyme solution, 0.2 mmol/L substrate, 1 h): above 99% | conversion [3]: 77%

Molecule: CSc1ccccc1 [thioanisole]
conversion of reaction [4]: above 99% | conversion of reaction ([2]; crude enzyme solution, 2 mmol/L substrate, 1 h): above 99%

B1: BoTEMO: Bradyrhizobium oligotrophicum ECU1212 Thioether Monooxygenase, amino acid sequence SEQ ID No. 2 (protein)
chain: MSTEHVDVLIVGAGLSGIAAAYHLQHKCPGKRFALLEGRGALGGTWDLFRYPGIRSDSDMYTLGYSFKPWTDPKAIADGPQILKYVQDTATENGIDRHIRFNHRVRRASWSSADARWTVEAERQTAQGTTETVSMTCGFLFMCSGYYRYEKGYLPDFKGMADFKGRIVHPQAWPADLDYAGKRVVVIGSGATAVTLVPAMAKTAAHVTMLQRSPTYVVSRPAQDALANKLREHLPAGLAYHLIRWRNVLFGMYFFQLSRRKPQRVKQLILGGVRAALGPDYDVATHFTPRYNPWDQRLCLVPDGDLFRTIREQRASVVTAGIDTFTERGLRLSDGRELEAEIVVTATGLVLQVLGGSEVVVDGRTVDFAKTLNYKGMMYSDVPNMAATLGYTNFSWTLKCDLTCEYVCRLLNYMDRHGYRQCVPHNDDTTVTPLPSLSFSSGYVQRSIADLPKQGSKRPWRLYQNYALDIVSLRFGKVDDGVMRYS
modifications: Bradyrhizobium oligotrophicum ECU1212
specific activity of the crude enzyme solution ([5]; 1 mmol/L thioanisole, 0.2 mmol/L NADPH, pH 9.0, 30° C.): 101 mU/ml | activity of lyophilized crude enzyme solution powders on thioanisole ([5]; lyophilized crude enzyme powders): 0.2 U/mg

activity against the lansoprazole thioether [6]: 20 U/g
B2: BoTEMO-M1: BoTEMO mutant, Asp295Cys, Ser395Leu, Trp396Ala, SEQ ID No. 4 (protein)
chain: B1 chain with D295C, S395L, W396A
modifications: VARIANT
enzyme activity relative to BoTEMO [6]: 7.6 times

activity against the lansoprazole thioether [6]: 4.2 U/g
B3: BoTEMO-M2: BoTEMO mutant, Ser357Ile, Phe394Ala, SEQ ID No. 6 (protein)
chain: B1 chain with S357I, F394A
modifications: VARIANT
enzyme activity relative to BoTEMO [6]: 1.6 times
